# Experimental data as given in PubChem BioAssay AID256 (DTP/NCI, 2004).
# “And” between values parts separate entries of the source, which are not always exact repeats. Equal values may be shown once. Inconclusive results and toxic doses are left out.
# Tested on: CD2F1 mice, L1210 leukemia ip, survival T/C
# Assay: NCI In Vivo Anticancer Drug Screen. Data for tumor model L1210 Leukemia (intraperitoneal) in CD2F1 (CDF1) mice
# Settings: higher = longer survival
# In short: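 Antitumor effect is scored in animals hosting a serially transplanted tumor. Values compare compound-dosed animals against vehicle-only controls as a simple quotient.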
# [1] = endpoint: mean survival time, dose: 25.0 mg/kg/injection, schedule: Q01DX009 (ip), vehicle: saline
# [2] = endpoint: mean survival time, dose: 50.0 mg/kg/injection, schedule: Q01DX009 (ip), vehicle: saline
# [3] = endpoint: mean survival time, dose: 100.0 mg/kg/injection, schedule: Q01DX009 (ip), vehicle: saline
# [4] = endpoint: mean survival time, dose: 100.0 mg/kg/injection, schedule: Q01DX009 (ip), vehicle: saline with Tween-80
# [5] = endpoint: mean survival time, dose: 100.0 mg/kg/injection, schedule: Q04DX003 (ip), vehicle: saline with Tween-80
# [6] = endpoint: mean survival time, dose: 200.0 mg/kg/injection, schedule: Q01DX009 (ip), vehicle: saline with Tween-80
# [7] = endpoint: mean survival time, dose: 200.0 mg/kg/injection, schedule: Q04DX003 (ip), vehicle: saline with Tween-80
# [8] = endpoint: mean survival time, dose: 400.0 mg/kg/injection, schedule: Q01DX009 (ip), vehicle: saline with Tween-80
# [9] = endpoint: mean survival time, dose: 400.0 mg/kg/injection, schedule: Q04DX003 (ip), vehicle: saline with Tween-80
# [10] = endpoint: mean survival time, dose: 400.0 mg/kg/injection, schedule: Q04DX002 (ip), vehicle: saline with Tween-80
compound,measurement,setting,value
NCCc1ccc(O)c(O)c1,T/C,[1],97 % of control
same,T/C,[2],109 % of control
same,T/C,[3],122 % of control and 109 % of control
same,T/C,"endpoint: mean survival time, dose: 200.0 mg/kg/injection, schedule: Q01DX009 (ip), vehicle: saline",112 % of control
same,T/C,"endpoint: mean survival time, dose: 400.0 mg/kg/injection, schedule: Q01DX009 (ip), vehicle: saline",119 % of control
same,T/C,"endpoint: median survival time, dose: 0.1 mg/kg/injection, schedule: Q01DX009 (ip), vehicle: saline",98 % of control and 107 % of control
same,T/C,"endpoint: median survival time, dose: 0.5 mg/kg/injection, schedule: Q01DX009 (ip), vehicle: saline",101 % of control and 107 % of control
same,T/C,"endpoint: median survival time, dose: 1.0 mg/kg/injection, schedule: Q01DX009 (ip), vehicle: saline",101 % of control and 107 % of control
same,T/C,"endpoint: median survival time, dose: 10.0 mg/kg/injection, schedule: Q01DX009 (ip), vehicle: saline",97 % of control
same,T/C,"endpoint: median survival time, dose: 25.0 mg/kg/injection, schedule: Q01DX020 (ip), vehicle: saline",101 % of control
same,T/C,"endpoint: median survival time, dose: 50.0 mg/kg/injection, schedule: Q01DX020 (ip), vehicle: saline",109 % of control
same,T/C,"endpoint: median survival time, dose: 50.0 mg/kg/injection, schedule: Q04DX002 (ip), vehicle: saline with Tween-80",111 % of control
same,T/C,"endpoint: median survival time, dose: 100.0 mg/kg/injection, schedule: Q01DX009 (ip), vehicle: saline",113 % of control and 117 % of control
same,T/C,"endpoint: median survival time, dose: 100.0 mg/kg/injection, schedule: Q01DX020 (ip), vehicle: saline",115 % of control
same,T/C,"endpoint: median survival time, dose: 100.0 mg/kg/injection, schedule: Q04DX002 (ip), vehicle: saline with Tween-80",111 % of control
same,T/C,"endpoint: median survival time, dose: 150.0 mg/kg/injection, schedule: Q01DX009 (ip), vehicle: saline",114 % of control
same,T/C,"endpoint: median survival time, dose: 200.0 mg/kg/injection, schedule: Q01DX020 (ip), vehicle: saline",115 % of control
same,T/C,"endpoint: median survival time, dose: 200.0 mg/kg/injection, schedule: Q04DX002 (ip), vehicle: saline with Tween-80",100 % of control
same,T/C,"endpoint: median survival time, dose: 400.0 mg/kg/injection, schedule: Q01DX020 (ip), vehicle: saline",118 % of control
same,T/C,"endpoint: median survival time, dose: 400.0 mg/kg/injection, schedule: Q04DX002 (ip), vehicle: saline with Tween-80",100 % of control
same,T/C,"endpoint: median survival time, dose: 800.0 mg/kg/injection, schedule: Q01DX020 (ip), vehicle: saline",118 % of control
Cc1ccc2nc(C(F)(F)F)cc(NN)c2c1,T/C,[4],100 % of control
same,T/C,[5],101 % of control
same,T/C,[6],94 % of control
same,T/C,[7],96 % of control
same,T/C,[8],100 % of control
same,T/C,[9],98 % of control
O=C1c2ccccc2C(=O)N1CCCl,T/C,[4],91 % of control
same,T/C,[6],91 % of control
same,T/C,[8],92 % of control
COc1cc2c(c(OC)c1OC)-c1cccc(=O)cc1C(NC(C)=O)CC2 (stereo unspecified),T/C,"endpoint: median survival time, dose: 2.5 mg/kg/injection, schedule: Q01DX005 (ip), vehicle: saline",107 % of control
same,T/C,"endpoint: median survival time, dose: 5.0 mg/kg/injection, schedule: Q01DX005 (ip), vehicle: saline",111 % of control
same,T/C,"endpoint: median survival time, dose: 10.0 mg/kg/injection, schedule: Q01DX005 (ip), vehicle: saline",108 % of control and 111 % of control
same,T/C,"endpoint: median survival time, dose: 20.0 mg/kg/injection, schedule: Q01DX005 (ip), vehicle: saline",117 % of control and 111 % of control
same,T/C,"endpoint: median survival time, dose: 40.0 mg/kg/injection, schedule: Q01DX005 (ip), vehicle: saline",116 % of control and 111 % of control
same,T/C,"endpoint: median survival time, dose: 80.0 mg/kg/injection, schedule: Q01DX005 (ip), vehicle: saline",122 % of control
same,T/C,"endpoint: median survival time, dose: 160.0 mg/kg/injection, schedule: Q01DX005 (ip), vehicle: saline",122 % of control
C=CCn1c(NCCN(CC)CC)nc2ccc(Cl)cc2c1=O,T/C,"endpoint: mean survival time, dose: 12.5 mg/kg/injection, schedule: Q01DX009 (ip), vehicle: saline sonified",105 % of control
same,T/C,"endpoint: mean survival time, dose: 12.5 mg/kg/injection, schedule: Q04DX003 (ip), vehicle: saline",100 % of control
same,T/C,"endpoint: mean survival time, dose: 25.0 mg/kg/injection, schedule: Q01DX009 (ip), vehicle: saline sonified",100 % of control
same,T/C,"endpoint: mean survival time, dose: 25.0 mg/kg/injection, schedule: Q04DX003 (ip), vehicle: saline",100 % of control
same,T/C,"endpoint: mean survival time, dose: 50.0 mg/kg/injection, schedule: Q01DX009 (ip), vehicle: saline sonified",103 % of control
same,T/C,"endpoint: mean survival time, dose: 50.0 mg/kg/injection, schedule: Q04DX003 (ip), vehicle: saline",101 % of control
CCCOC(=O)Nc1ccccn1,T/C,"endpoint: mean survival time, dose: 100.0 mg/kg/injection, schedule: Q04DX002 (ip), vehicle: saline with Tween-80",108 % of control
same,T/C,"endpoint: mean survival time, dose: 200.0 mg/kg/injection, schedule: Q04DX002 (ip), vehicle: saline with Tween-80",108 % of control
same,T/C,[10],97 % of control
Nc1cnc2nc(N)[nH]c(=O)c2c1,T/C,"endpoint: mean survival time, dose: 100.0 mg/kg/injection, schedule: Q01DX009 (ip), vehicle: saline sonified",97 % of control
same,T/C,[5],93 % of control
same,T/C,"endpoint: mean survival time, dose: 200.0 mg/kg/injection, schedule: Q01DX009 (ip), vehicle: saline sonified",102 % of control
same,T/C,[7],93 % of control
same,T/C,"endpoint: mean survival time, dose: 400.0 mg/kg/injection, schedule: Q01DX009 (ip), vehicle: saline sonified",93 % of control
same,T/C,[9],95 % of control
N#Cc1ccc(C(=O)CC(O)(C(F)(F)F)C(F)(F)F)cc1,T/C,[5],101 % of control
same,T/C,[7],101 % of control
same,T/C,[9],98 % of control
OC1C(COCc2ccccc2)OC(n2cccc2)C1O (stereo unspecified),T/C,"endpoint: median survival time, dose: 8.75 mg/kg/injection, schedule: Q01DX005 (ip), vehicle: distilled water + Tween-80",98 % of control
same,T/C,"endpoint: median survival time, dose: 17.5 mg/kg/injection, schedule: Q01DX005 (ip), vehicle: distilled water + Tween-80",101 % of control
same,T/C,"endpoint: median survival time, dose: 35.0 mg/kg/injection, schedule: Q01DX005 (ip), vehicle: distilled water + Tween-80",104 % of control
same,T/C,"endpoint: median survival time, dose: 70.0 mg/kg/injection, schedule: Q01DX005 (ip), vehicle: distilled water + Tween-80",112 % of control
same,T/C,"endpoint: median survival time, dose: 140.0 mg/kg/injection, schedule: Q01DX005 (ip), vehicle: distilled water + Tween-80",98 % of control
O=[N+]([O-])c1ccc(N/N=C\c2ccc3ccccc3n2)cc1,T/C,"endpoint: mean survival time, dose: 100.0 mg/kg/injection, schedule: Q04DX003 (ip), vehicle: saline",106 % of control
same,T/C,"endpoint: mean survival time, dose: 200.0 mg/kg/injection, schedule: Q04DX003 (ip), vehicle: saline",109 % of control
same,T/C,"endpoint: mean survival time, dose: 400.0 mg/kg/injection, schedule: Q04DX003 (ip), vehicle: saline",101 % of control
Cc1ccc(N=C2C=CC(=O)O2)cc1,T/C,[5],98 % of control
same,T/C,[7],104 % of control
same,T/C,[9],101 % of control
NCCOS(=O)(=O)O,T/C,[1],102 % of control
same,T/C,[2],98 % of control
same,T/C,[3],96 % of control
COc1ccc(/C=N/N=C/c2ccc(OC)cc2)cc1,T/C,"endpoint: mean survival time, dose: 100.0 mg/kg/injection, schedule: Q04DX003 (ip), vehicle: Klucel (hydroxypropylcellulose) (HPC)",104 % of control
same,T/C,"endpoint: mean survival time, dose: 200.0 mg/kg/injection, schedule: Q04DX003 (ip), vehicle: Klucel (hydroxypropylcellulose) (HPC)",100 % of control
same,T/C,"endpoint: mean survival time, dose: 400.0 mg/kg/injection, schedule: Q04DX003 (ip), vehicle: Klucel (hydroxypropylcellulose) (HPC)",114 % of control
COc1ccc(NC(=O)Nc2cccc(Cl)c2)c(Cl)c1,T/C,"endpoint: mean survival time, dose: 25.0 mg/kg/injection, schedule: Q04DX002 (ip), vehicle: saline with Tween-80",88 % of control
same,T/C,"endpoint: mean survival time, dose: 50.0 mg/kg/injection, schedule: Q04DX002 (ip), vehicle: saline with Tween-80",92 % of control
same,T/C,[10],88 % of control
CCCCCCCCCCCCOCCC(=O)O,T/C,"endpoint: mean survival time, dose: 75.0 mg/kg/injection, schedule: Q04DX003 (ip), vehicle: saline",97 % of control
same,T/C,"endpoint: mean survival time, dose: 150.0 mg/kg/injection, schedule: Q04DX003 (ip), vehicle: saline",103 % of control
same,T/C,"endpoint: mean survival time, dose: 300.0 mg/kg/injection, schedule: Q04DX003 (ip), vehicle: saline",95 % of control
O[C@H](CN1CC1)[C@@H](O)CN1CC1,T/C,"endpoint: mean survival time, dose: 0.25 mg/kg/injection, schedule: Q01DX007 (ip), vehicle: saline",150 % of control
same,T/C,"endpoint: mean survival time, dose: 0.25 mg/kg/injection, schedule: Q01DX009 (ip), vehicle: saline",170 % of control and 177 % of control and 178 % of control
same,T/C,"endpoint: mean survival time, dose: 0.5 mg/kg/injection, schedule: Q01DX007 (ip), vehicle: saline",192 % of control
same,T/C,"endpoint: mean survival time, dose: 0.5 mg/kg/injection, schedule: Q01DX009 (ip), vehicle: saline",165 % of control and 197 % of control and 205 % of control
same,T/C,"endpoint: mean survival time, dose: 0.5 mg/kg/injection, schedule: Q03DX003 (ip), vehicle: saline",166 % of control
same,T/C,"endpoint: mean survival time, dose: 0.5 mg/kg/injection, schedule: Q04DX003 (ip), vehicle: saline",164 % of control
same,T/C,"endpoint: mean survival time, dose: 1.0 mg/kg/injection, schedule: Q01DX007 (ip), vehicle: saline",94 % of control
same,T/C,"endpoint: mean survival time, dose: 1.0 mg/kg/injection, schedule: Q01DX009 (ip), vehicle: saline",116 % of control and 95 % of control
same,T/C,"endpoint: mean survival time, dose: 1.0 mg/kg/injection, schedule: Q03DX003 (ip), vehicle: saline",202 % of control
same,T/C,"endpoint: mean survival time, dose: 1.0 mg/kg/injection, schedule: Q04DX003 (ip), vehicle: saline",184 % of control
NS(=O)(=O)c1ccc(N=Cc2ccccc2O)cc1,T/C,[4],95 % of control
same,T/C,[6],89 % of control
same,T/C,[8],86 % of control
